Experimental data from ChEMBL document CHEMBL4390677, “Topographical Mapping of Isoform-Selectivity Determinants for J-Channel-Binding Inhibitors of Sphingosine Kinases 1 and 2” (J Med Chem, 2019).

Columns and labels:
[1] = molecular target: T1, Sphingosine kinase 2 (Homo sapiens, UniProt Q9NRA0); assay: Inhibition of SK2 (unknown origin)
T1 sequence (Q9NRA0 whole entry): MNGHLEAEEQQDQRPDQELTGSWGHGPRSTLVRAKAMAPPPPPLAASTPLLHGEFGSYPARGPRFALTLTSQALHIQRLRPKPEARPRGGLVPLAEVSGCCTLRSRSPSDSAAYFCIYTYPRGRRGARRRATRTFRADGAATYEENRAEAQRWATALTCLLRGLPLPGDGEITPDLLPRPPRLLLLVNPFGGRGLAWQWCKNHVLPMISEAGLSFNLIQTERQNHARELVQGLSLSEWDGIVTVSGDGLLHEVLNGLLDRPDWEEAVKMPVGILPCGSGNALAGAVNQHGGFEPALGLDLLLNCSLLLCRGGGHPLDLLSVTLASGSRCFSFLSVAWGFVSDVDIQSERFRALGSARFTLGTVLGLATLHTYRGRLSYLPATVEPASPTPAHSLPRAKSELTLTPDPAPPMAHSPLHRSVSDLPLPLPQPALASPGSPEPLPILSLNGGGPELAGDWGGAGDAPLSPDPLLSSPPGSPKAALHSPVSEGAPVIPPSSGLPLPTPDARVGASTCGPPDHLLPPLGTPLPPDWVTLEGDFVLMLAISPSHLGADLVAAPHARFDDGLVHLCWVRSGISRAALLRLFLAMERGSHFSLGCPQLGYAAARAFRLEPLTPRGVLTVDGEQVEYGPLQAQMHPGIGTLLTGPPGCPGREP

[2] = species on record: Homo sapiens; assay: Selectivity index, ratio of IC50 for GFP-tagged SK1 (unknown origin) expressed in HEK293 cells to IC50 for purified SK2 (unknown origin)
[3] = molecular target: Sphingosine kinase 1 (Homo sapiens, UniProt Q9NYA1); assay: Inhibition of GFP-tagged SK1 (unknown origin) expressed in HEK293 cells using Sph as substrate measured after 30 mins in presence of [gamma32P]ATP by Cerenkov counting analysis; type: cell-based
Chain of Sphingosine kinase 1 (Q9NYA1 whole entry): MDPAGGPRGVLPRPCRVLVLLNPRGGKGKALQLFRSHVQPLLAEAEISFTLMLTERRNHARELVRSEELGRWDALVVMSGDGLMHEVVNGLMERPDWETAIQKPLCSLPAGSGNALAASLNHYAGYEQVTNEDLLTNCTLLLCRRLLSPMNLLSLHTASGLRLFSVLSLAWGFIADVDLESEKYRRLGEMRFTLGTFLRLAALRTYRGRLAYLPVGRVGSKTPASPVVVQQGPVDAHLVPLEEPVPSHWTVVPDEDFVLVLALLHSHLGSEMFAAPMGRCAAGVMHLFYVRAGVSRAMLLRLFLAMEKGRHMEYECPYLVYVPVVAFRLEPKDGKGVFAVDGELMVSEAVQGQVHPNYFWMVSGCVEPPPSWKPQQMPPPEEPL

[4] = molecular target: T1, Sphingosine kinase 2; assay: Inhibition of recombinant human full-length N-terminal His-tagged SK2 expressed in baculovirus infected Sf9 insect cells using Sph as substrate measured after 30 mins in presence of [gamma32P]ATP by Cerenkov counting analysis
[5] = molecular target: T2, Sphingosine kinase 2 (Homo sapiens) (UniProt Q9NRA0); assay: Inhibition of recombinant human full-length N-terminal His-tagged SK2 expressed in baculovirus infected Sf9 insect cells at 3 uM using Sph as substrate measured after 30 mins in presence of [gamma32P]ATP by Cerenkov counting analysis relative to control
T2 sequence (whole entry): T1 sequence (Q9NRA0 whole entry)

Row | Structure (SMILES) | Ki [1] [nM] | IC50 [3] [nM] | IC50 [4] [nM] | inhibition [5] [%] | Ratio IC50 [2]
1 | Oc1ccc(Nc2nc(-c3ccc(Cl)cc3)cs2)cc1 | 6700 | – | – | – | –
2 | OC[C@H]1CCCN1Cc1ccc(COc2cccc(OCc3ccc(Cl)cc3)c2)cc1 | – | 4130 | 41 | – | 101
3 | OC[C@H]1CCCN1Cc1ccc(COc2cccc(OCc3cccc(Cl)c3)c2)cc1 | – | 44 | 412 | – | 0.11
4 | O=S(=O)(Cc1cccc(OCc2ccc(CN3CCC[C@@H]3CO)cc2)c1)c1ccccc1 | – | 144 | – | 16 | < 0.048
5 | OC[C@H]1CCCN1Cc1ccc(COc2cccc(OCc3ccccc3Cl)c2)cc1 | – | 39 | 151 | – | 0.26
6 | O=S(=O)(Oc1cccc(OCc2ccc(CN3CCC[C@@H]3CO)cc2)c1)c1ccccc1 | – | 11 | 902 | – | 0.012
7 | OC[C@H]1CCCN1Cc1ccc(COc2cccc(OCc3ccccc3F)c2)cc1 | – | 41 | 55 | – | 0.75
8 | COc1ccc(COc2cccc(OCc3ccc(CN4CCC[C@@H]4CO)cc3)c2)cc1 | – | > 3000 | 119 | – | > 25
9 | OC[C@H]1CCCN1Cc1ccc(COc2cccc(CCc3ccccc3)c2)cc1 | – | 26 | 35 | – | 0.74
10 | OC[C@H]1CCCN1Cc1ccc(COc2cccc(OCc3ccccc3)c2)cc1 | – | 14 | 16 | – | 0.88
11 | N#Cc1ccc(COc2cccc(OCc3ccc(CN4CCC[C@@H]4CO)cc3)c2)cc1 | – | > 3000 | 1120 | – | > 2.7

Second part, led by results:

Row | Ki [1] [nM] | IC50 [3] [nM] | IC50 [4] [nM] | inhibition [5] [%] | Structure (SMILES) | Ratio IC50 [2]
12 | – | 170 | 49 | – | OC[C@H]1CCCN1Cc1ccc(COc2cccc(OCc3ccc(F)cc3)c2)cc1 | 3.5
13 | – | 137 | 26 | – | OC[C@H]1CCCN1Cc1ccc(COc2cccc(SCc3ccccc3)c2)cc1 | 5.3
14 | – | 9 | 143 | – | OC[C@H]1CCCN1Cc1ccc(COc2cccc(OCc3cccc(F)c3)c2)cc1 | 0.063
15 | – | 765 | 17 | – | OC[C@H]1CCCN1Cc1ccc(COc2cccc(SCc3ccc(F)cc3)c2)cc1 | 45
16 | – | 2360 | 31 | – | OC[C@H]1CCCN1Cc1ccc(COc2cccc(SCc3ccc(Cl)cc3)c2)cc1 | 76
